How the values were obtained:
Format in all cases: in vivo, rat
[1] = tested on: rats following MCAO; test: Iba1 immunostaining of microglia after MCAO; conditions: 30 days after stroke; p>0.05
Experimental: MCAO surgeries were performed as described elsewhere (Vendrame M, Cassady C J, Newcomb J, Butler T, Pennypacker K R, Zigova T, et al. Stroke. 2004; 35:2390-2395). Briefly, rats were anesthetized with isoflurane, and the right common carotid and external carotid arteries were exposed using blunt dissection techniques. The vagus nerve was separated from common carotid artery and the external carotid artery was ligated proximally, and transected near the bifurcation. An embolus 40 mm in length (4.0 siliconized monofilament) was inserted into the external carotid artery and fed distally into the origin of the middle cerebral artery (˜25 mm from insertion) through the internal carotid artery. Blood samples were taken and analyzed using an i-STAT handheld analyzer for hemoglobin, hematocrit, ionized calcium, glucose, sodium, potassium, pH, pCO2, HCO3, TCO2, base excess, pO2, and O2. Cerebral blood flow was recorded using a Laser Doppler Monitor (Moor Instruments) to verify occlusion. […]
Anti-Iba1 (1:500; Wako 019-19741) immunocytochemistry was used for the specific identification of microglia. […] Iba-1 positive cells were quantified (n=12) as previously detailed by Smirkin et al. (Smirkin, Matsumoto et al. 2010) with little modification. […] Total number of Iba-1 positive cells were counted manually by two observer using ImagePro plus software.

[2] = tested on: rats following MCAO; test: Spontaneous activity (automated activity monitor) after MCAO; conditions: 1 month post MCAO
Experimental: MCAO surgeries were performed as described elsewhere (Vendrame M, Cassady C J, Newcomb J, Butler T, Pennypacker K R, Zigova T, et al. Stroke. 2004; 35:2390-2395). Briefly, rats were anesthetized with isoflurane, and the right common carotid and external carotid arteries were exposed using blunt dissection techniques. The vagus nerve was separated from common carotid artery and the external carotid artery was ligated proximally, and transected near the bifurcation. An embolus 40 mm in length (4.0 siliconized monofilament) was inserted into the external carotid artery and fed distally into the origin of the middle cerebral artery (˜25 mm from insertion) through the internal carotid artery. Blood samples were taken and analyzed using an i-STAT handheld analyzer for hemoglobin, hematocrit, ionized calcium, glucose, sodium, potassium, pH, pCO2, HCO3, TCO2, base excess, pO2, and O2. Cerebral blood flow was recorded using a Laser Doppler Monitor (Moor Instruments) to verify occlusion. Afterwards, the embolus was ligated permanently into the vessel and the neck incision was closed. Animals were treated with Ketoprofen IM (10 mg/kg) for three days post-surgery.
For the NAGH studies, vehicle or NAGH were prepared fresh each day. Daily subcutaneous injections (s.c) were administered beginning about 24 hours after MCAO and continued daily to about 72 hours post-surgery (FIG. 1). Animals received a total of 3 injections. A total of 84 animals were randomly assigned into 2 groups: Rats treated with vehicle (40% DMSO in sterile saline, n=42), or rats treated with 0.86 mg/kg NAGH (n=42).
For NAD testing, a total of 32 animals were randomly assigned into 2 groups: Vehicle (n=16), and rat treated with 2.8 mg/kg NAD (n=16). Vehicle consisted of 40% DMSO in sterile saline.
Spontaneous Activity was measured during both the day (1 hr) and night (12 hrs) using an automated activity monitor (VersaMax, Accuscan Instruments, Inc). Spontaneous Activity was measured prior to stroke to establish the normal baseline for each individual animal as well as 1 month after the MCAO. The animals were placed in a Plexiglas box and allowed to roam freely. There is a three dimensional infrared array in this box and when a beam is broken, activity is recorded. A total of sixteen parameters were measured including: Vertical movement, Horizontal movement, and Stereotypic activity were selected for analysis: Horizontal activity (HA), Total distance travelled (TD), Number of movements (MVN), Movement time (MVT), Vertical activity (VA), Number of vertical movements (VMN), vertical time (VT), Stereotype counts (SC), Number of Stereotypy (SN), Stereotypy time (ST), Clockwise rotation (CR), counterclockwise rotation (CCR), Margin distance (MD), Marginal time (MT), Center distance (CD), and Center time (CT). The data are presented as mean+SEM of percent of baseline behavior.

[3] = tested on: rats following MCAO; test: Battery of behavioral tests after MCAO (corner, grip, rotorod, step, cylinder); conditions: 30 days after MCAO
Experimental: After surgery, animals were tested was performed once before surgery and 30 days post-surgery for motor coordination and behavior. All behavioral data are reported as mean+sem.
Rotorod test, which measures motor coordination, was conducted using Omni-rotor Rotorod (Omnitech, Inc). Animals were trained on the accelerating rotorod apparatus for 3 consecutive days before times were collected. Animals were placed on the revolving rod and instrument was set to accelerate to a maximum speed of 40 rpm over 180 seconds. Latency to fall (in seconds) was recorded. This test was performed in triplicate once per day for 3 days.
Rats were held tightly with one forelimb placed on a hard flat table top and then pulled for a length of 1 meter in the direction of the placed forelimb at constant velocity. The test was repeated with the opposite forelimb. This was repeated three times for each forelimb and the percent of contralateral forelimb paw was obtained. The bias was standardized as the absolute number of steps with the contralateral paw minus 100.
The animals were placed in a transparent cylinder about 20 cm in diameter and 30 cm in height with an open top. The number times each paw was placed on the sides of the cylinder was counted a5 minute period. The test was videotaped and a mirror was placed behind the cylinder allowing the experimenter to see the placement of paws when the animal was facing away from the camera.
A 30 degree angle was formed using the edges of two plexiglass boards. The animals were placed halfway into the corner facing the corner and the total number of left and right turns was recorded. A total of 10 trials were conducted and videotaped. A non-lesioned animal turned randomly toward the left or right, while a lesioned animal preferentially turned toward the non-impaired (left) side. Results were reported as the percentage of ipsilateral (injury site, right side) versus contralateral turns.
Motor deficits were assessed using a grip strength meter (Bioseb, # BIO-GS3). […] Grip strength was recorded in Newtons (N). […]

Cl.N=C(Nc1cccc2ccccc12)Nc1cccc2ccccc12 [NAGH, N,N′-di-1-Naphthylguanidine hydrochloride] was tested, and the “Activated microglia (Iba1 positive cells) in peri-infarct and ischemic core vs DMSO” value [1] was “not statistically significant”, the “Daytime horizontal activities vs DMSO” value ([2]; 1-hr test) was “no significant differences” and the “Daytime vertical time (VT) vs DMSO” value ([2]; 1-hr test, p=0.01) was “significantly less active”. For the same compound, the “Daytime vertical activity (VA) vs DMSO” value ([2]; 1-hr test, p=0.03) was “significantly less active”, the “Daytime number of vertical movements (VMN) vs DMSO” value ([2]; 1-hr test, p=0.15) was “more active than DMSO group” and the “Daytime stereotypy activity (SC, SN, ST) decrease vs DMSO” value ([2]; 1-hr test, p>0.05) was “failed to reach a statistically significant level”. The “Nighttime horizontal parameters decrease vs DMSO” value ([2]; 12-hr test) was “did not reach statistical significance”, the “Nighttime stereotypic behavior (SC, SN, ST) vs DMSO” value ([2]; 12-hr test) was “did not show any significant difference” and the “Nighttime vertical activity (VA) vs DMSO” value ([2]; 12-hr test, p=0.01) was “significantly less active”. The “Nighttime number of vertical movements (VMN) vs DMSO” value ([2]; 12-hr test, p=0.015) was “significantly more active”, the “Nighttime vertical time (VT) vs DMSO” value ([2]; 12-hr test, p=0.03) was “significantly less active” and the “Overall behavioral data vs vehicle, all tests except EBST” value ([3]; NAGH 0.86 mg/kg s.c. x3) was “no significant differences”. The “Changes in asymmetry on the cylinder test” value ([3]; NAGH) was “failed to gain significance”.
